# Source: article PMC10892984, “Novel Antineoplastic Inducers of Mitochondrial Apoptosis in Human Cancer Cells” (Molecules, 2024)
# How the values were obtained:
# [1] = system: NCI-H522; settings: NCI-H522, non-small-cell lung cancer, mutant p53; 48 h
# [2] = system: OVCAR-3; settings: OVCAR-3, ovarian cancer, mutant p53; 48 h
# [3] = system: HS 578T; settings: HS 578T, breast cancer, mutant p53; 48 h
# [4] = system: RPMI-8226; settings: RPMI-8226, leukemia, mutant p53; 48 h
# [5] = system: MOLT-4; settings: MOLT-4, leukemia, mutant p53; 48 h
# [6] = system: A498; settings: A498, renal cancer, wild-type p53; 48 h
# [7] = system: SK-MEL-2; settings: SK-MEL-2, melanoma, mutant p53; 48 h
# [8] = system: HCT-15; settings: HCT-15, colon cancer, mutant p53; 48 h
# [9] = system: COLO 205; settings: COLO 205, colon cancer, mutant p53; 48 h
# [10] = system: LOX IMVI; settings: melanoma, wild-type p53, 48 h
# [11] = system: DU-145; settings: DU-145, prostate cancer, mutant p53; 48 h
# [12] = system: OVCAR-5; settings: OVCAR-5, ovarian cancer, p53 Lit. inconclusive; 48 h
# [13] = system: NCI-H460; settings: NCI-H460, non-small-cell lung cancer, wild-type p53; 48 h
# [14] = system: TK-10; settings: TK-10, renal cancer, mutant p53; 48 h
# [15] = system: SN12C; settings: renal cancer, mutant p53, 48 h
# [16] = system: UO-31; settings: UO-31, renal cancer, wild-type p53; 48 h
# [17] = system: UACC-62; settings: UACC-62, melanoma, wild-type p53; 48 h
# [18] = system: SNB-75; settings: SNB-75, CNS cancer (brain tumor), mutant p53; 48 h
# [19] = system: MCF7; settings: MCF7, breast cancer, wild-type p53; 48 h
# [20] = system: MDA-MB-231; settings: MDA-MB-231, breast cancer, mutant p53; 48 h
# [21] = system: SF-539; settings: SF-539, CNS cancer (brain tumor), mutant p53; 48 h
# [22] = system: SF-295; settings: SF-295, CNS cancer (brain tumor), mutant p53; 48 h
# [23] = system: SF-268; settings: SF-268, CNS cancer (brain tumor), mutant p53; 48 h
# [24] = system: NCI-H226; settings: NCI-H226, non-small-cell lung cancer, p53 Lit. inconclusive; 48 h
# [25] = system: HCT-116; settings: HCT-116, colon cancer, wild-type p53; 48 h
# [26] = system: M14; settings: M14, melanoma, mutant p53; 48 h
# [27] = system: OVCAR-8; settings: OVCAR-8, ovarian cancer, mutant p53; 48 h
smiles,measurement,setting,value
"COc1cc2c(c(OC)c1OC)-c1ccc(NNC(=S)N(Cc3cccc(C[N+](Cc4cccc(CNC56CC7CC(CC(C7)C5)C6)c4)(Cc4cccc(CNC56CC7CC(CC(C7)C5)C6)c4)Cc4cccc(CN(C(=S)NNc5ccc6c(cc5=O)C(NC(C)=O)CCc5cc(OC)c(OC)c(OC)c5-6)C56CC7CC(CC(C7)C5)C6)c4)c3)C34CC5CC(CC(C5)C3)C4)c(=O)cc1C(NC(C)=O)CC2 [Compound 3, [(bis{3-[(tricyclo[3.3.1.1^3,7]decan-1-ylamino)methyl]benzyl}ammonio)bis(methanediylbenzene-3,1-diylmethanediyl)]di-2-[(aS,7S)-7-(acetylamino)-1,2,3-trimethoxy-9-oxo-5,6,7,9-tetrahydrobenzo[a]heptalen-10-yl]-N-(tricyclo[3.3.1.1^3,7]decan-1-yl)hydrazinecarbothioamide chloride pentahydrate]",TGI,[1],1.88 µM
same,TGI,[2],6.53 µM
same,TGI,[3],6.76 µM
same,TGI,[4],1.76 µM
same,TGI,[5],1.93 µM
same,TGI,[6],3.28 µM
same,TGI,[7],2.76 µM
same,TGI,[8],5.96 µM
same,TGI,[9],1.52 µM
same,TGI,[10],2.86 µM
same,TGI,[11],7.10 µM
same,TGI,[12],5.03 µM
same,TGI,[13],3.79 µM
same,TGI,[14],8.35 µM
same,TGI,[15],6.90 µM
same,TGI,[16],7.20 µM
same,TGI,[17],6.38 µM
same,TGI,[18],6.68 µM
same,TGI,[19],3.44 µM
same,TGI,[20],2.99 µM
same,TGI,[21],4.30 µM
same,TGI,[22],5.92 µM
same,TGI,[23],6.54 µM
same,TGI,[24],9.97 µM
same,TGI,[25],3.07 µM
same,TGI,[26],2.26 µM
same,TGI,[27],7.49 µM
